Key:
[1] = Phase I clinical evaluation; cited from earlier work
cancer cell lines = conditions: some cancer cell lines; cited from earlier work
[2] = tested on: MDA MB231 (triple negative human breast cancer); test: Cytotoxicity analysis by MTT assay; format: cell-based; conditions: MDA-MB-231, 96 hours exposure, read-out: IC50 (nanomolar) MDA MB 231 (Triple negative breast cancer cell line)
Experimental: MDA MB231 (triple negative human breast cancer) was obtained from the American Type Culture Collection. The cell-line was maintained in monolayer culture in 75 cm^2 flasks (TPP, Switzerland) under a humidified 5% CO2 atmosphere at 37° C. The MDA MB231 cell line was maintained in high glucose DMEM (4.5 g\l; Invitrogen), foetal bovine serum (10%, Biosera UK), non-essential amino acids (ix; Invitrogen), L-glutamine (2 mM; Invitrogen) and Penicillin-Streptomycin (1% v/v, Invitrogen). For passaging, cells were washed with PBS (GIBCO 14040, Invitrogen, UK), incubated with trypsine (GIBCO 25300, Invitrogen, UK), and re-seeded into fresh medium. For seeding, cells were counted using a Neubauer haemocytometer (Assistant, Germany) by microscopy (Nikon, USA) on a non-adherent suspension of cells that were washed in PBS, trypsinised, centrifuged at 8° C. at 8000 rpm for 5 min and re-suspended in fresh medium.
The cells were grown in normal cell culture conditions at 37° C. under a 5% CO2 humidified atmosphere using appropriate medium. […] After 96 h of continuous exposure to each compound, the cytotoxicity was determined using the 3-(4,5-Dimethylthiazol-2-yl)-2,5-diphenyltetrazolium bromide (MTT) (Lancaster Synthesis Ltd, UK) colorimetric assay. Absorbance was quantified by spectrophotometry at X=570 nm (Envision Plate Reader, PerkinElmer, USA). […]

## C=C1C[C@H]2C=Nc3cc(OCCCOc4cc5c(cc4OC)C(=O)N4CC(=C)C[C@H]4C=N5)c(OC)cc3C(=O)N2C1
[1]
  adverse effects: lower-limb edema and fatigue

## COC(=O)c1cc(-c2ccc(NC(=O)c3nc(NC(=O)CCCOc4cc5c(cc4OC)C(=O)N4CCC[C@H]4C=N5)cn3C)cc2)cn1C
Cancer cell lines
  cytotoxic activity range: femtomolar range

## COC(=O)c1cc2cc(NC(=O)c3cc(NC(=O)CO[C@@H]4CCN5C(=O)c6cc(OC)c(OC)cc6N=C[C@@H]5C4)cn3C)ccc2s1 [Compound 23, Methyl 5-(4-(2-(((6aS,8R)-2,3-dimethoxy-12-oxo-6a,7,8,9,10,12-hexahydrobenzo[e]pyrido[1,2-a][1,4]diazepin-8-yl)oxy)acetamido)-1-methyl-1H-pyrrole-2-carboxamido)benzo[b]thiophene-2-carboxylate]
[2]
  IC50: 221 nM

— patent publication US10399970B2, “Pyrridinobenzodiazepine and benzopyrridodiazecine compounds” (FEMTOGENIX LIMITED, priority 2015, dated 2019)
